Assay: xn = mol fraction of the nth substance listed
Settings: 101 kPa, Liquid; for viscosity: Capillary tube (Ostwald / Ubbelohde) method; for speed of sound: Sing-around technique in a fixed-path interferometer; for mass density: Vibrating tube method

CCCCCCCCCCCCCCCC [hexadecane] + CC(C)O
Settings | mass density, 298.15 K [kg/m3] | mass density, 303.15 K [kg/m3] | mass density, 308.15 K [kg/m3] | speed of sound, 298.15 K [m/s] | speed of sound, 303.15 K [m/s] | speed of sound, 308.15 K [m/s] | viscosity, 298.15 K [mPa·s] | viscosity, 303.15 K [mPa·s] | viscosity, 308.15 K [mPa·s]
x2 = 0 | 770.456 | 766.981 | 763.52 | 1338.6 | 1320 | 1301.7 | 3.041 | 2.706 | 2.409
x2 = 0.0441 | 770.067 | 766.622 | 763.106 | 1334.2 | 1315.5 | 1297.1 | 2.867 | 2.521 | 2.231
x2 = 0.1285 | 769.792 | 766.198 | 762.606 | 1325.5 | 1306.8 | 1288.2 | 2.654 | 2.312 | 2.034
x2 = 0.1617 | 769.728 | 766.093 | 762.479 | 1321.8 | 1302.9 | 1284.7 | 2.601 | 2.264 | 1.989
x2 = 0.2294 | 769.59 | 765.938 | 762.287 | 1314.8 | 1295.9 | 1277.2 | 2.531 | 2.214 | 1.944
x2 = 0.2707 | 769.56 | 765.896 | 762.206 | 1310.1 | 1291.2 | 1272.5 | 2.504 | 2.199 | 1.928
x2 = 0.332 | 769.565 | 765.88 | 762.156 | 1303.1 | 1284.1 | 1265.6 | 2.47 | 2.176 | 1.92
x2 = 0.414 | 769.697 | 765.976 | 762.174 | 1293.5 | 1274.5 | 1255.6 | 2.43 | 2.153 | 1.904
x2 = 0.5064 | 770.039 | 766.23 | 762.374 | 1280.3 | 1261.3 | 1242.7 | 2.36 | 2.08 | 1.843
x2 = 0.6119 | 770.701 | 766.793 | 762.751 | 1263.2 | 1244.4 | 1225.5 | 2.242 | 1.95 | 1.719
x2 = 0.7008 | 771.594 | 767.564 | 763.551 | 1245.9 | 1227.1 | 1208.2 | 2.123 | 1.821 | 1.599
x2 = 0.762 | 772.47 | 768.35 | 764.298 | 1231.6 | 1212.9 | 1194 | 2.051 | 1.723 | 1.51
x2 = 0.8419 | 774.082 | 769.888 | 765.761 | 1208.4 | 1189.9 | 1171.2 | 1.974 | 1.628 | 1.418
x2 = 0.9188 | 776.284 | 772.263 | 768.061 | 1180 | 1161.6 | 1143.6 | 1.96 | 1.608 | 1.419
x2 = 0.9498 | 777.915 | 773.694 | 769.382 | 1166.2 | 1148.3 | 1130.3 | 1.983 | 1.647 | 1.454

CC(C)CCCC(C)CCCC(C)CCCCC(C)CCCC(C)CCCC(C)C (stereo not given) [2,6,10,15,19,23-hexamethyltetracosane] + CC(C)O
Settings | mass density, 298.15 K [kg/m3] | mass density, 303.15 K [kg/m3] | mass density, 308.15 K [kg/m3] | speed of sound, 298.15 K [m/s] | speed of sound, 303.15 K [m/s] | speed of sound, 308.15 K [m/s] | viscosity, 298.15 K [mPa·s] | viscosity, 303.15 K [mPa·s] | viscosity, 308.15 K [mPa·s]
x2 = 0 | 805.122 | 801.912 | 798.709 | 1381.9 | 1364.1 | 1346.5 | 28.26 | 22.09 | 17.77
x2 = 0.0621 | 804.504 | 801.238 | 797.982 | 1377.4 | 1359.1 | 1341.4 | 24.12 | 18.75 | 15.29
x2 = 0.0949 | 804.196 | 800.909 | 797.625 | 1374.9 | 1356.8 | 1338.9 | 22.69 | 17.69 | 14.48
x2 = 0.1438 | 803.771 | 800.451 | 797.133 | 1371.4 | 1353.3 | 1335.5 | 21.22 | 16.63 | 13.66
x2 = 0.218 | 803.155 | 799.796 | 796.425 | 1366 | 1347.9 | 1330 | 19.65 | 15.45 | 12.74
x2 = 0.2865 | 802.572 | 799.185 | 795.767 | 1360.2 | 1342.2 | 1324.2 | 18.5 | 14.56 | 12.03
x2 = 0.3119 | 802.336 | 798.955 | 795.521 | 1358.2 | 1340 | 1321.9 | 18.11 | 14.24 | 11.76
x2 = 0.4022 | 801.467 | 798.03 | 794.563 | 1349.5 | 1331.3 | 1313.3 | 16.68 | 13.05 | 10.84
x2 = 0.5142 | 800.109 | 796.619 | 793.069 | 1336.4 | 1318.1 | 1299.9 | 14.34 | 11.37 | 9.424
x2 = 0.5952 | 798.83 | 795.275 | 791.676 | 1324.5 | 1306.4 | 1288.1 | 11.77 | 9.455 | 7.904

— the NIST ThermoML archive (doi:10.1016/j.jct.2008.07.010)
